# pIC50: −log10 of the molar value.
# What was measured:
# human TOR (FLAG-TOR) = human TOR (FLAG-TOR) (Homo sapiens, UniProt P42345); test: mTOR enzyme assay (DELFIA format, purified enzyme); assay type: biochemical; conditions: 800 ng/ml FLAG-TOR, 100 μM ATP, 1.25 μM His6-S6K; read-out: mTOR Kinase IC50
# PI3Kα = PI3Kα (Homo sapiens, UniProt P42336); test: PI3Kα fluorescence polarization assay; assay type: biochemical; conditions: 20 μM PIP2, 25 μM ATP
# Experimental: The reaction buffer was 20 mM HEPES pH7.5, 2 mM MgCl2, 0.05% CHAPS, and 0.01% βME (added fresh). The substrate solution was 40 μM PIP2 (diC8, Echelon, Salt Lake City Utah cat #P-4508, 1 mM in water) and 50 μM ATP in the reaction buffer. Nunc 384-well black polypropylene fluorescent plates were used for PI3K assays. The assay is run by putting 9.5 μl of freshly diluted enzyme in the reaction buffer per well, adding 0.5 μl of diluted drug or DMSO, and mixing. Then 10 μl of the substrate solution is added to each well to start the reaction. A final concentration of 20 μM PIP2 and 25 μM ATP in the reaction was used. Reactions were allowed to proceed for 30-60 minutes at room temperature. After 30-60 minutes, 20 μl of a solution of 10 nM TAMRA detector (Red detector probe-Echelon) and 2.5 uM of GST-murine GRP (1.5 mg/ml in 17% glycerol) was added per well to stop the reaction. The resulting solution was mixed well and allowed to stand for 90-110 minutes before reading plate. Assay Plates were read on Perkin-Elmer Envision plate readers with appropriate filters for Tamra [BODIPY-TMRI(1,3,4,5)P4]. Data obtained were used to calculate enzymatic activity and enzyme inhibition by inhibitor compounds. It is important to keep Red probe solutions dark. This procedure is adapted from Echelon Biosciences Inc procedure for their PI3-Kinase fluorescence polarization activity Assay kit Product number K-1100.
# [1] = system: LNCap prostate tumor cells; test: In vitro cell growth assay (MTS), LNCap; assay type: cell-based, human; conditions: Homo sapiens, LNCaP, 72 h, three days after drug treatment
# Experimental: (§1) Cell lines used were human adenocarcinoma (LoVo), […], prostate (LNCap), breast (MDA468, MCF7), colon (HCT116), renal (HTB44 A498), and ovarian (OVCAR3) tumor cell lines. The tumor cells were plated in 96-well culture plates at approximately 3000 cells per well. One day following plating, various concentrations of inhibitors in DMSO were added to cells (final DMSO concentration in cell assays was 0.25%). Three days after drug treatment, viable cell densities were determined by cell mediated metabolic conversion of the dye MTS, a well-established indicator of cell proliferation in vitro. Cell growth assays were performed using kits purchased from Promega Corporation (Madison, Wis.), following the protocol provided by the vendor. Measuring absorbance at 490 nm generated MTS assay results. Compound effect on cell proliferation was assessed relative to untreated control cell growth.
# [2] = system: MDA468 breast tumor cells; test: In vitro cell growth assay (MTS), MDA468; assay type: cell-based, human; conditions: Homo sapiens, 72 h, three days after drug treatment
# Experimental: as §1
# Sequence of PI3Kα (P42336 whole entry, species assumed): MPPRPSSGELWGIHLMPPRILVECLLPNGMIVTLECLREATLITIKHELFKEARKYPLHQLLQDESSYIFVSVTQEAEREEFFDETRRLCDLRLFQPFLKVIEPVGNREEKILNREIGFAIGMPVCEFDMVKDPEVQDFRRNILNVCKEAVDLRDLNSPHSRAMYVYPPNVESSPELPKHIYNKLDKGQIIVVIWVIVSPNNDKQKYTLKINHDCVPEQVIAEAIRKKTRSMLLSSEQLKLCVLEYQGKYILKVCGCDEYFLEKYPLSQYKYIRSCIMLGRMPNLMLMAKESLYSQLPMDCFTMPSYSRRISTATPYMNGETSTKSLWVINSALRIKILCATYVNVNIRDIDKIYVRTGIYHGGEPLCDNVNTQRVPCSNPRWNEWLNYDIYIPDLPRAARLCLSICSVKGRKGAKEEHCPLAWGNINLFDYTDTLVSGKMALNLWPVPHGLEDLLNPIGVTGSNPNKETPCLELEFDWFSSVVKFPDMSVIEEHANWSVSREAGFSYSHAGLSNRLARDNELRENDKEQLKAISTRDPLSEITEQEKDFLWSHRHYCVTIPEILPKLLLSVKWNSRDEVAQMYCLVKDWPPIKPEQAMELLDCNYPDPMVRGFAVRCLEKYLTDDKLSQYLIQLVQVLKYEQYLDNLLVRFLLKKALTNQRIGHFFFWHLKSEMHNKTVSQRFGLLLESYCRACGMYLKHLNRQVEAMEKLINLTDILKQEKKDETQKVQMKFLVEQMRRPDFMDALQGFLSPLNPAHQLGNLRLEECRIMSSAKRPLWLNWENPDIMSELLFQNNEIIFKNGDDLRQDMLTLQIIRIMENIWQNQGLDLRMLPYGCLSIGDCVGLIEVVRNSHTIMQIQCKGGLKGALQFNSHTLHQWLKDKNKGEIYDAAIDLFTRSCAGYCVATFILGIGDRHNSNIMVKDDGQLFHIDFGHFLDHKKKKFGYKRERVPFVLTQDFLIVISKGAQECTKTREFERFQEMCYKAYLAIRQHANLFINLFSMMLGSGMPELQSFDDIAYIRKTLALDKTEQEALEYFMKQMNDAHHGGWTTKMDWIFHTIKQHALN
# Sequence of PI3Kα (P27986 whole entry partner, species assumed): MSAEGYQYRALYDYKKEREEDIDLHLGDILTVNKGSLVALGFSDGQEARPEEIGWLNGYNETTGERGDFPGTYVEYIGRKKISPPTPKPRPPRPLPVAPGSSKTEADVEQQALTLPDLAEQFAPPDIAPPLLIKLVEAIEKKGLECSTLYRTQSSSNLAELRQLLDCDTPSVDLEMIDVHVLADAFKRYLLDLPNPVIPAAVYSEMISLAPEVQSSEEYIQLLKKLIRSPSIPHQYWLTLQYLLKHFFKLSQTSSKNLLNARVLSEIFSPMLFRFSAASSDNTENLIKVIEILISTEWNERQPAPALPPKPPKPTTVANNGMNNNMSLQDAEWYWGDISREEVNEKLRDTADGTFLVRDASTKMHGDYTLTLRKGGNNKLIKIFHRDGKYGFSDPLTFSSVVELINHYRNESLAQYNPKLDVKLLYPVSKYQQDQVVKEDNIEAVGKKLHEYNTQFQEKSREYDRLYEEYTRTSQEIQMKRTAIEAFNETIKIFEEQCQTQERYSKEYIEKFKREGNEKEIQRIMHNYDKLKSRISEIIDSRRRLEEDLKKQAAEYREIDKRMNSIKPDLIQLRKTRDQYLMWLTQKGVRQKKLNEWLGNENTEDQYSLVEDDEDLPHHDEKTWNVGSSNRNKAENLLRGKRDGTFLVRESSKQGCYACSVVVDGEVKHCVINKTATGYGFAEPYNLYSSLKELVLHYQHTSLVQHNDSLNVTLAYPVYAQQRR
Compound,pIC50 (human TOR (FLAG-TOR)),pIC50 (PI3Kα),pIC50 [1],pIC50 [2]
O=c1cc(Oc2cccc(NCc3ccc(Cl)nc3)c2)c2ccccc2[nH]1,7.22,4.89,5.46,5.10
O=c1cc(Oc2cccc(NCc3ccsc3)c2)c2ccccc2[nH]1,6.92,< 5.00,4.46,–
Nc1ncccc1CNc1cccc(Oc2cc(=O)[nH]c3ccccc23)c1,7.15,< 5.00,5.40,–
O=c1cc(Oc2cccc(NCc3ccc(-n4ccnc4)cc3)c2)c2ccccc2[nH]1,7.10,< 5.00,5.40,–
O=c1cc(Oc2ccccc2)c2cc(-c3ccncc3)ccc2[nH]1,–,5.40,4.22,4.22
COc1cccc(Oc2cc(=O)[nH]c3ccccc23)c1,6.52,< 5.00,5.03,4.22
O=c1cc(Oc2ccccc2)c2ccc(Cl)cc2[nH]1,< 4.70,6.51,–,–
Nc1ccc(Oc2cc(=O)[nH]c3ccccc23)cc1,6.80,5.65,5.12,4.57
CC(=O)Nc1ccc(Oc2cc(=O)[nH]c3ccccc23)cc1,5.22,5.14,–,–
O=c1cc(Oc2ccccc2)c2cc(-c3ccccc3)ccc2[nH]1,5.09,5.08,–,–
O=c1cc(Oc2ccccc2)c2cc(Br)ccc2[nH]1,< 4.70,< 5.00,–,–
Nc1ccc2[nH]c(=O)cc(Oc3ccccc3)c2c1,< 4.70,5.59,< 4.22,< 4.22
O=c1cc(Oc2ccccc2)c2cc(N3CCOCC3)ccc2[nH]1,4.78,5.93,5.12,4.57
O=c1cc(Oc2ccccc2)c2cc(-c3ccoc3)ccc2[nH]1,5.14,5.16,< 4.22,5.35
O=c1cc(Oc2ccc(Br)cc2)c2ccccc2[nH]1,5.66,5.39,< 4.22,4.30
Cc1ccccc1Oc1cc(=O)[nH]c2ccccc12,5.70,5.10,5.10,< 4.22
COc1ccccc1Oc1cc(=O)[nH]c2ccccc12,5.04,5.33,< 4.22,< 4.22
O=c1cc(Oc2ccccc2)c2ccc(Br)cc2[nH]1,< 4.70,5.27,< 4.22,< 4.22
O=c1cc(Oc2ccc(-c3ccccc3)cc2)c2ccccc2[nH]1,< 4.70,6.03,< 4.22,< 4.22
O=c1cc(Oc2ccc(-c3cccnc3)cc2)c2ccccc2[nH]1,5.76,5.48,5.67,4.78
Nc1ccc(-c2ccc(Oc3cc(=O)[nH]c4ccccc34)cc2)cc1,< 4.70,6.11,5.70,4.22
O=c1cc(Oc2ccc(-c3ccsc3)cc2)c2ccccc2[nH]1,< 4.70,5.60,< 4.22,< 4.22
CC(=O)Nc1ccc2[nH]c(=O)cc(Oc3ccccc3)c2c1,< 4.70,< 5.00,< 4.22,< 4.22
O=c1cc(Oc2ccc(-c3ccoc3)cc2)c2ccccc2[nH]1,< 4.70,5.71,< 4.22,< 4.22
CC(=O)c1ccc(Oc2cc(=O)[nH]c3ccccc23)cc1,5.73,5.78,4.89,< 4.22
N#Cc1ccc(Oc2cc(=O)[nH]c3ccccc23)cc1,5.12,5.68,5.26,4.32
O=c1cc(Oc2ccc(Cl)cc2)c2ccccc2[nH]1,6.02,5.60,< 4.22,4.31
